In assay [1] the target is T1, grass carp TACR3 (Ctenopharyngodon idella, UniProt A0A075BDW2).
T1 sequence (A0A075BDW2 1-395): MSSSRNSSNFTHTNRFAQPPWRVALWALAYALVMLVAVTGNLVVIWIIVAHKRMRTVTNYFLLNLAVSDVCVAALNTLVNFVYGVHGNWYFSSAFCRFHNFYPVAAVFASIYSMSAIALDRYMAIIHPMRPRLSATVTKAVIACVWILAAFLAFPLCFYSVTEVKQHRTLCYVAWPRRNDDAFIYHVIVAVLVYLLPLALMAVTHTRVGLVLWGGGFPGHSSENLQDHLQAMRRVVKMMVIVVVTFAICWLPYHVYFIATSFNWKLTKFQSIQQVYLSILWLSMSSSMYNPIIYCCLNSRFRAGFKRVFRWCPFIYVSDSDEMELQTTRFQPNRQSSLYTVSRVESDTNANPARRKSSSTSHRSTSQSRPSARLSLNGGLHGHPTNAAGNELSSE
Description: CRE-Luc luciferase reporter (cAMP pathway) in HEK-293 cells with stable expression of grass carp TACR3. The class given is cell-based, grass carp (Ctenopharyngodon idellus). To be noted: SEM. On the technique in general: A reporter such as luciferase makes a cellular process visible.
Description: To clarify the ligand selectivity and signal transduction pathways of TACR3, functional expression of grass carp TACR3 was performed in HEK-293 cells with co-transfection of luciferase-expressing reporters targeting different signaling pathways provided by the Clontech Cell Signaling Profiling Kit (Clontech, Mountain View, CA, USA), including cAMP response element (CRE)-Luc (for cAMP pathway), activator protein-1 (AP1)-Luc (for PKC pathway), nuclear factor of activated T-cells (NFAT)-Luc (for Ca^2+/calcineurin pathway), and serum responsive element (SRE)-Luc (for MAPK pathway) [29]. […]
For the calcium bioluminescence signals and raw data obtained from luciferase reporter assays, the luminescence signals or luciferase activity was expressed as “relative luminescence unit (RLU)” registered by the fluorescence plate reader. For individual samples of the luciferase reporter assay, the firefly luciferase activity detected was routinely normalized against Renilla Luciferase activity expressed in the same well and expressed as the luciferase activity ration (as “Luc Ratio”). […] The six replicates presented (expressed as Mean ± SEM) were pooled results from two individual experiments prior to statistical analysis; all data were tested for normality of distribution using the Shapiro–Wilk normality test. […]

For assay [2], the target named is T1, grass carp TACR3. Description: Fluorescence-based receptor binding assay, displacement of FAM-NKBa tracer. Also on record: species or system grass carp (Ctenopharyngodon idellus). To be noted: HEK-293 cells with stable expression of grass carp TACR3, 30 min pretreatment with competitor (0.1–1000 nM), then FAM-NKBa (10 nM) 30 min, 37 °C, fluorescence 490/520 nm; read-out: IC50 for displacing FAM-NKBa binding.

In assay [3] the test system is SLα mRNA expression in grass carp pituitary cells. Description: SLα mRNA expression (qPCR) in grass carp pituitary cells. The class given is cell-based, grass carp (Ctenopharyngodon idellus). To be noted: senktide 1 µM, IGF-I/-II 100 nM (Figure 4E). Here is the method: Grass carp pituitary cells prepared by the trypsin/DNase digestion method were seeded in 24-well plates at ~2.5 × 10^6 cells/mL/well. On the following day, drug treatment was initiated by replacing the old medium with a testing medium with the appropriate levels of test substances, and the cells were then allowed to incubate at 28 °C for the duration as indicated. After drug treatment, total RNA was extracted from individual wells and reversely transcribed as above. The RT samples obtained were subjected to qPCR using a LightCycler SYBR Green I Kit (Roche, Stockholm, Sweden) with the primers mentioned above. In these studies, serial dilutions of plasmid DNA containing the ORF of SLα (GeneBank no.: EF372074) and TACR3 (GenBank no: JQ254913) cDNA were used as the standards for data calibration. Parallel real-time PCR measurement of β-actin was also conducted in individual experiments to serve as the internal control.
For real-time PCR of SLα and TACR3 mRNA measurement, standard curves with a dynamic range of ≥10^5 and correlation coefficient of ≥0.95 were used for data calibration with the RotorGene-Q software 1.7 (Qiagen) under unsupervised mode. SLα and TACR3 mRNA data were normalized with the β-actin transcript level and then were transformed as a percentage of the mean value in the control group without drug treatment (as “%Ctrl”). For the calcium bioluminescence signals and raw data obtained from luciferase reporter assays, the luminescence signals or luciferase activity was expressed as “relative luminescence unit (RLU)” registered by the fluorescence plate reader. For individual samples of the luciferase reporter assay, the firefly luciferase activity detected was routinely normalized against Renilla Luciferase activity expressed in the same well and expressed as the luciferase activity ration (as “Luc Ratio”). For receptor binding assay, specific binding of FAM-NKBa was measured in terms of “Arbitrary Fluorescence Unit (AFU)”. The six replicates presented (expressed as Mean ± SEM) were pooled results from two individual experiments prior to statistical analysis; all data were tested for normality of distribution using the Shapiro–Wilk normality test. Then, one-way ANOVA and two-way ANOVA were used to test the significant difference according to different experiment groups. The differences between groups were considered as significant at P < 0.05 (“*”) or highly significant at P < 0.01 (“**”).
In general terms: Real-time PCR tracks product formation cycle by cycle.

The subject of another assay is Akt. The assay is described as follows: Western blot for signaling kinases: Akt phosphorylation. Type of assay: cell-based, grass carp (Ctenopharyngodon idellus). To be noted: grass carp pituitary cells, senktide (1 µM) + IGF-I (50 nM), 15 min. Here is the method:
(§1) The pituitary cells derived from twenty grass carp pituitaries were seeded in 24-well culture plates at a density of 2.5 × 10^6 cells/mL/well and incubated with drug treatment for the duration as indicated in the individual experiments. […] After drug treatment, the culture medium from individual wells was removed and the remaining cells were rinsed with PBS and lysed in RIPA buffer (50 mM Tris^·HCl, 150 mM NaCl, 1 mM EDTA, 1% NP-40, and 0.25% Na deoxycholate), containing a final concentration of 1×protease/phosphatase inhibitor cocktail (Roche). The cell lysate was cleared by high-speed centrifugation at 4 °C, the clear supernatant was resolved in 10% gel by SDS-PAGE, and Western blotting was conducted according to the procedures as previously described. The antibodies that can be detected, the phosphorylated and total ERK1/2 (1:5,000), MEK1/2 (1:1,000), p38 MAPK (1:1,000), and Akt (1:1,000), were used at the dilutions recommended by the manufactures. […] Chemiluminescence signals for target immune-reactivity were detected using SuperSignal West Pico (PIERCE, Rockford, IL, USA) as the substrate and quantified using the IC440 CF Digital Science Image Station (Eastman Kodak, Rochester, NY, USA). […]
For orientation: A western blot detects proteins with antibodies after separation by electrophoresis.

The test system of a further assay is p38MAPK. The assay is described as follows: Western blot for signaling kinases: p38MAPK phosphorylation. The note with it: grass carp pituitary cells, senktide (1 µM) + IGF-I (50 nM), 15 min. The class given is cell-based, grass carp (Ctenopharyngodon idellus). How it is done:
as §1

The test system of the next assay is MEK1/2. Description: Western blot for signaling kinases: MEK1/2 phosphorylation. The class given is cell-based, grass carp (Ctenopharyngodon idellus). To be noted: grass carp pituitary cells, senktide (1 µM) + IGF-I (50 nM), 15 min. Here is the method:
as §1

Another assay deals with ERK1/2. The assay is described as follows: Western blot for signaling kinases: ERK1/2 phosphorylation. To be noted: grass carp pituitary cells, senktide (1 µM) + IGF-I (50 nM), 15 min. Type of assay: cell-based, grass carp (Ctenopharyngodon idellus). How it is done: as §1

The record followed here is PMC6721824, “IGFs Potentiate TAC3-induced SLα Expression via Upregulation of TACR3 Expression in Grass Carp Pituitary Cells” (Cells, 2019).

Usually EC50 stands for the concentration at which the effect is half-maximal. Read a high EC50 as weaker potency. What is called IC50 is the concentration that gives 50% inhibition.

Molecules are shown by their SMILES. Peptide text beside a SMILES is read from it.

With `CSCC[C@H](NC(=O)[C@H](CC(C)C)NC(=O)CNC(=O)[C@H](Cc1ccccc1)N(C)C(=O)[C@H](Cc1ccccc1)NC(=O)[C@H](CC(=O)O)NC(=O)CCC(=O)O)C(N)=O` [senktide] (HELM PEPTIDE1{[O=C(O)CCC(=O)[*:2]].D.F.[meF].G.L.M.[am]}$$$$V2.0; N-terminus and C-terminus assumed), a half-maximal effect at grass carp TACR3 [1] (EC50) was put at 21.3 ± 3.2 nM. At grass carp TACR3 [2], the half-inhibitory concentration (IC50) came out at 71.2 ± 9.23 nM. In addition, the “SLα mRNA expression on cotreatment of TACR3 agonist with IGF-I or IGF-II” value in assay [3] is reported as “mimic the synergistic effects”. The “effect of cotreatment on IGF-I-induced protein phosphorylation of Akt” value with Akt is listed as “noticeable potentiating effect”. For the same compound, in the assay with p38MAPK, the “effect of cotreatment on IGF-I-induced protein phosphorylation of p38MAPK” value is reported as “did not alter”. The “effect of cotreatment on IGF-I-induced protein phosphorylation of MEK1/2” value with MEK1/2 is “did not alter”. For the same compound, the “effect of cotreatment on IGF-I-induced protein phosphorylation of ERK1/2” value with ERK1/2 is given as “did not alter”.
